The record followed here is US8748575B2, “Therapeutic peptides” (Combimab, Inc., priority 2010, dated 2014).

Residues, ends and D or L forms follow the SMILES beside them.

In one assay the test system is T84 cells (GC-C). Put plainly: Intact T84 cell cGMP accumulation assay. The assay is classed as cell-based, Human. Further details: key to CGMP accumulation assay: 1+ (lowest activity/potency); ++: Results are graded from 1+ (lowest activity/potency) to 5+ (highest activity/potency); +++: Results are graded from 1+ (lowest activity/potency) to 5+ (highest activity/potency); ++++: Results are graded from 1+ (lowest activity/potency) to 5+ (highest activity/potency); +++++: 5+ (highest activity/potency). Particulars: for activity in the cGMP accumulation assay: FIG. 22, compared to STa peptide; for CGMP accumulation assay: graded activity/potency, T84 cells. On the procedure:
The intact T84 cell assay was used to detect the accumulation of cGMP, the product of agonism, upon interaction with a compound (Visweswariah et al., 1992). Human colorectal adenocarcinoma T84 cells were grown to confluence in a 24 well plate using DMEM/F12 medium supplemented with 10% FBS. The media was aspirated from each well and the cells were washed three times with Dulbecco's PBS (1×, no Ca2+ or Mg2+). The cells were then incubated for 30 minutes at 37° C. with 1 mM […] (IBMX) in Optimem medium (no FBS), either with or without potential antagonists. After incubation under these conditions, a 10× concentrated stock of a known GC-C agonist (e.g., STa (5-18)) in PBS was added to each well and the incubation continued for an additional 15 min at 37° C.
The reaction was stopped by the addition of 200 μL of Passive Lysis Buffer (Promega) to each well. The supernatant was removed for cGMP quantitation by RIA using ^125I-labeled cGMP 54 antibody relative to an external cGMP standard curve. The cells were scraped from the surface for protein content determination using a BioRad Protein Assay.

The target of the next assay is T1, GC-C (Mus musculus, UniProt Q3UWA6).
T1 construct: freshly prepared mouse intestine membranes; from tissue; host or cells: mouse intestine (membrane preparation)
T1 sequence (Q3UWA6 20-1072): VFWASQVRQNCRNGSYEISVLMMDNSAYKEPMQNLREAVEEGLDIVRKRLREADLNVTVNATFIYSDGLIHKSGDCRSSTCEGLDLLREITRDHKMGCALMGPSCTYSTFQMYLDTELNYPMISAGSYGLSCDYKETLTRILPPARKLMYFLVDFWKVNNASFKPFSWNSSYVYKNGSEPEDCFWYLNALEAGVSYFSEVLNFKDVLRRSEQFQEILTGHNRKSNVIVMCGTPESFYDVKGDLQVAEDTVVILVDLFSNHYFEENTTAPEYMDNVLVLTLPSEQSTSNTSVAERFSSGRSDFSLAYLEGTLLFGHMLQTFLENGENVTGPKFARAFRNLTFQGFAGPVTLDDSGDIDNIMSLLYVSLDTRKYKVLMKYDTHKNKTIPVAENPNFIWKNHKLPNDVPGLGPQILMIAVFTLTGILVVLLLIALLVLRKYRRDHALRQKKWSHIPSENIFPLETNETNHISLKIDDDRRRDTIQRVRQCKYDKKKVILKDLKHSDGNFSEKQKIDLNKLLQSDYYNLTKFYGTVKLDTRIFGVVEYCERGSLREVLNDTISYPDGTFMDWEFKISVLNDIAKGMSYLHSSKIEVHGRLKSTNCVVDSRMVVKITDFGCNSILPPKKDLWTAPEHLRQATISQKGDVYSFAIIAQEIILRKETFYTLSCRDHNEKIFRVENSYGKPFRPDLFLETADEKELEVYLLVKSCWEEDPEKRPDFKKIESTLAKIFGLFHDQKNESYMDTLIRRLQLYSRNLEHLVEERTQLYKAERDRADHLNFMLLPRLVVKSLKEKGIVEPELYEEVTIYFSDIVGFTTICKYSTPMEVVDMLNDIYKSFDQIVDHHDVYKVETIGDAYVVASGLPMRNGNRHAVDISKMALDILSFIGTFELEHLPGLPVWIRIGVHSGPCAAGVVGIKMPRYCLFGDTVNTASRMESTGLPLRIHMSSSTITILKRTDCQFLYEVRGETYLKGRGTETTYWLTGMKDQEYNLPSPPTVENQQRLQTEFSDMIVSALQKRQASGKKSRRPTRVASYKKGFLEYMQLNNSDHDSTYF
As to the kind of experiment: Intestinal membrane 125I-STa competitive radioligand binding assay. Set-up: key to I-125 binding assay: 1+ (lowest activity/potency); ++: Results are graded from 1+ (lowest activity/potency) to 5+ (highest activity/potency); +++: Results are graded from 1+ (lowest activity/potency) to 5+ (highest activity/potency); ++++: Results are graded from 1+ (lowest activity/potency) to 5+ (highest activity/potency); +++++: 5+ (highest activity/potency). The settings on record: graded activity/potency, mouse intestinal membranes. Here is the method:
Intestinal membrane 1-125 labeled radioligand binding assay. The intestinal membrane radioligand binding assay was used to assess whether a novel compound could displace ^125I-STa from GC-C (Crane et al., 1992). Each analog was analyzed for its ability to displace ^125I-STa from GC-C in a competitive binding assay. ^125I-ST Displaced” was determined by co-incubating STa analogs (10 μM) with 50,000 DPM of ^125I-STa (1-18) in the presence of mouse intestinal membranes. The displacement (n=3) for each analog was determined relative to a vehicle control.
Membranes were prepared from freshly harvested mouse intestines by first washing away the blood or feces with ice-cold Dulbecco's PBS. Washed organs were minced with a single-edged razor blade, followed by homogenization on ice in 50 mM Tris, pH 7.6, containing 1 mM EDTA, 1 mM PMSF, 1 mM DTT. Debris was then removed by a 15 minute centrifugation at 3,000×G and 4° C. The supernatant is then passed through successively smaller needles (18 gauge through 25 gauge) and frozen at −70° C. until used as a tissue homogenate. If intended for use as isolated membranes, the above homogenate was centrifuged (100,000×G) at 4° C. for 1 hour while fresh and the pellet was re-suspended in homogenization buffer.
The assay was performed in 96 well filter plates which were pre-incubated overnight with 200 μl of 0.3% polyethylenimine (w/v) and washed three times by aspiration with 300 μl of Wash Buffer (150 mM NaCl, 20 mM Sodium Phosphate pH=7.2, 1 mM EDTA) immediately before use. Into each well of was added 50 μl of 3× Binding buffer (150 mM Tris-HCl pH=7.6, 1.98 mM Cysteamine, 0.3% Bacitracin, 1350 mM NaCl, 3 mM EDTA), 40 μl of double-distilled water, 10 μl of either double-distilled water or cold ligand (50 uM STa (5-18) in double-distilled water), 10 μl of increasing concentrations (125 DPM/ul to 50,000 DPM/ul) of radiolabeled 125I -STa (1-18) and finally 40 μl (approximately 2 mg protein/ml) of freshly prepared mouse intestine membranes. The plates were then incubated with mixing at 37 C for two hr, washed successively with six 200 μl aliquots of Wash Buffer and aspirated to dryness. The filter bottoms of each well were punched into individual borosilicate tubes and bound radioactivity determined in a gamma counter. Protein content was determined on an aliquot of the mouse intestine membranes used in the Biorad Protein Assay.

Consider `C[C@@H]1NC(=O)[C@@H]2CCCN2C(=O)[C@H](CC(N)=O)NC(=O)[C@@H]2CSSC[C@H](N)C(=O)N[C@H]3CSSC[C@H](NC1=O)C(=O)N[C@@H]([C@@H](C)O)C(=O)NCC(=O)N[C@H](C(=O)N[C@@H](Cc1ccc(O)cc1)C(=O)O)CSSC[C@H](NC(=O)[C@H](Cc1ccc(O)cc1)NC(=O)[C@H](CCC(=O)O)NC3=O)C(=O)N2` [Linaclotide, H2N Cys Cys Glu Tyr Cys Cys Asn Pro Ala Cys Thr Gly Cys Tyr COOH] (HELM PEPTIDE1{C.C.E.Y.C.C.N.P.A.C.T.G.C.Y}$PEPTIDE1,PEPTIDE1,1:R3-6:R3|PEPTIDE1,PEPTIDE1,2:R3-10:R3|PEPTIDE1,PEPTIDE1,5:R3-13:R3$$$V2.0), for which the “activity in the cGMP accumulation assay” value with T84 cells (GC-C) and in the assay with T84 cells (GC-C) (second experiment) was “lower than the STa peptide” throughout. Besides, in the assay on T84 cells (GC-C), the CGMP accumulation assay entry is reported as “+++”. The I-125 binding assay entry on GC-C is “+++”.
With “H2N Asn Thr Phe Tyr Cys Cys Glu Leu Cys Cys Asn Pro Ala Cys Ala Gly Cys Tyr COOH [STa(1-18)]”, in the assay on T84 cells (GC-C), the CGMP accumulation assay entry is on record as “++++”. Also, the I-125 binding assay result at GC-C is recorded as “+++”.
